PubChem BioAssay (NCI)
Several values for one entry are separate records, joined by “and”; a condition that tells them apart may be missing. Equal values may be shown once.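 Compound exposure: 48 hours, 5 concentrations, 96-well plates. GI50 marks 50% less growth. At the TGI there is no net growth.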

Key:
Assay in all cases: inhibition of tumour cell growth, NCI panel, 48 h
M14 melanoma = system: M14 melanoma
K-562 leukemia = system: K-562 leukemia
SR leukemia = system: SR leukemia
EKVX NSCLC = system: EKVX NSCLC
OVCAR-5 ovarian = system: OVCAR-5 ovarian
M19-MEL melanoma = system: M19-MEL melanoma
SK-OV-3 ovarian = system: SK-OV-3 ovarian
SW-620 colon = system: SW-620 colon
LOX IMVI melanoma = system: LOX IMVI melanoma
NCI-H23 lung = system: NCI-H23 lung
NCI-H226 lung = system: NCI-H226 lung
OVCAR-3 ovarian = system: OVCAR-3 ovarian
COLO 205 colon = system: COLO 205 colon
U251 CNS = system: U251 CNS
SK-MEL-2 melanoma = system: SK-MEL-2 melanoma
NCI-H522 lung = system: NCI-H522 lung
DLD-1 colon = system: DLD-1 colon
SNB-75 CNS = system: SNB-75 CNS
SK-MEL-5 melanoma = system: SK-MEL-5 melanoma
SF-268 CNS = system: SF-268 CNS
TK-10 renal = system: TK-10 renal
SK-MEL-28 melanoma = system: SK-MEL-28 melanoma
HL-60(TB) leukemia = system: HL-60(TB) leukemia
DMS 273 small cell lung = system: DMS 273 small cell lung
DMS 114 small cell lung = system: DMS 114 small cell lung
CCRF-CEM leukemia = system: CCRF-CEM leukemia
HOP-62 NSCLC = system: HOP-62 NSCLC
HCC-2998 colon = system: HCC-2998 colon
KM20L2 colon = system: KM20L2 colon
LXFL 529 NSCLC = system: LXFL 529 NSCLC
SN12C renal = system: SN12C renal
UO-31 renal = system: UO-31 renal
RPMI-8226 leukemia = system: RPMI-8226 leukemia
OVCAR-8 ovarian = system: OVCAR-8 ovarian
NCI-H460 lung = system: NCI-H460 lung
A498 renal = system: A498 renal
SNB-78 CNS = system: SNB-78 CNS
HCT-116 colon = system: HCT-116 colon
KM12 colon = system: KM12 colon
HOP-92 NSCLC = system: HOP-92 NSCLC
786-0 renal = system: 786-0 renal
A549 NSCLC = system: A549 NSCLC
XF 498 CNS = system: XF 498 CNS
MOLT-4 leukemia = system: MOLT-4 leukemia
CAKI-1 renal = system: CAKI-1 renal
HCT-15 colon = system: HCT-15 colon
RXF 393 renal = system: RXF 393 renal
SF-295 CNS = system: SF-295 CNS
OVCAR-4 ovarian = system: OVCAR-4 ovarian
UACC-62 melanoma = system: UACC-62 melanoma
HT29 colon = system: HT29 colon
SF-539 CNS = system: SF-539 CNS
SNB-19 CNS = system: SNB-19 CNS
IGROV1 ovarian = system: IGROV1 ovarian
UACC-257 melanoma = system: UACC-257 melanoma
MALME-3M melanoma = system: MALME-3M melanoma

Structure (SMILES): COc1cc(C2c3cc4c(cc3[C@@H](NC3CCN(Cc5ccccc5)CC3)C3COC(=O)[C@H]23)OCO4)cc(OC)c1O (stereo not given in full)
- GI50 (M14 melanoma): 180 nM and 48.4 nM
- TGI (M14 melanoma): 744 nM and 346 nM
- GI50 (K-562 leukemia): 266 nM and 122 nM
- TGI (K-562 leukemia): 12800 nM and 2840 nM
- TGI (SR leukemia): 20 nM
- GI50 (EKVX NSCLC): 369 nM and 783 nM
- TGI (EKVX NSCLC): 2430 nM and 3960 nM
- TGI (OVCAR-5 ovarian): 1510 nM
- TGI (M19-MEL melanoma): 2100 nM and 1900 nM
- TGI (SK-OV-3 ovarian): 445 nM and 503 nM
- GI50 (SW-620 colon): 232 nM and 76 nM
- TGI (SW-620 colon): 2420 nM and 1080 nM
- GI50 (LOX IMVI melanoma): 145 nM and 34.9 nM
- TGI (LOX IMVI melanoma): 1180 nM and 231 nM
- GI50 (NCI-H23 lung): 126 nM and 40.6 nM
- TGI (NCI-H23 lung): 623 nM and 224 nM
- TGI (NCI-H226 lung): 101 nM and 53.5 nM
- TGI (OVCAR-3 ovarian): 1560 nM and 1040 nM
- GI50 (COLO 205 colon): 372 nM and 179 nM
- GI50 (U251 CNS): 115 nM and 26 nM
- TGI (U251 CNS): 594 nM and 183 nM
- GI50 (SK-MEL-2 melanoma): 1050 nM and 239 nM
- TGI (SK-MEL-2 melanoma): 2770 nM and 496 nM
- GI50 (NCI-H522 lung): 82.7 nM
- TGI (NCI-H522 lung): 321 nM
- TGI (DLD-1 colon): 3110 nM and 2260 nM
- GI50 (SNB-75 CNS): 32.4 nM and 218 nM
- TGI (SNB-75 CNS): 1790 nM and 636 nM
- GI50 (SK-MEL-5 melanoma): 206 nM and 73.9 nM
- TGI (SK-MEL-5 melanoma): 1400 nM and 373 nM
- TGI (SF-268 CNS): 1980 nM and 584 nM
- GI50 (TK-10 renal): 679 nM and 197 nM
- TGI (TK-10 renal): 2560 nM and 608 nM
- TGI (SK-MEL-28 melanoma): 2840 nM and 1570 nM
- TGI (HL-60(TB) leukemia): 200 nM and 54.8 nM
- GI50 (DMS 273 small cell lung): 114 nM and 21.9 nM
- TGI (DMS 273 small cell lung): 558 nM and 180 nM
- GI50 (DMS 114 small cell lung): 169 nM and 63.9 nM
- TGI (DMS 114 small cell lung): 1960 nM and 316 nM
- TGI (CCRF-CEM leukemia): 232 nM and 120 nM
- TGI (HOP-62 NSCLC): 206 nM and 146 nM
- TGI (HCC-2998 colon): 1130 nM and 427 nM
- TGI (KM20L2 colon): 3280 nM and 841 nM
- GI50 (LXFL 529 NSCLC): 1100 nM and 438 nM
- TGI (LXFL 529 NSCLC): 4400 nM and 2720 nM
- GI50 (SN12C renal): 1850 nM
- TGI (SN12C renal): 3890 nM
- GI50 (UO-31 renal): 214 nM and 87.9 nM
- TGI (UO-31 renal): 1110 nM and 275 nM
- GI50 (RPMI-8226 leukemia): 151 nM and 54 nM
- TGI (RPMI-8226 leukemia): 2820 nM and 465 nM
- TGI (OVCAR-8 ovarian): 587 nM
- GI50 (NCI-H460 lung): < 10 nM
- TGI (NCI-H460 lung): 194 nM and 116 nM
- TGI (A498 renal): 498 nM
- GI50 (SNB-78 CNS): 2040 nM and 887 nM
- TGI (SNB-78 CNS): 6030 nM and 8240 nM
- TGI (HCT-116 colon): 2280 nM and 1590 nM
- TGI (KM12 colon): 2230 nM and 1020 nM
- GI50 (HOP-92 NSCLC): 143 nM and 26 nM
- TGI (HOP-92 NSCLC): 730 nM and 93.4 nM
- GI50 (786-0 renal): 161 nM and 33.3 nM
- TGI (786-0 renal): 668 nM and 221 nM
- TGI (A549 NSCLC): 178 nM
- GI50 (XF 498 CNS): 377 nM and 132 nM
- TGI (XF 498 CNS): 2340 nM and 1400 nM
- GI50 (MOLT-4 leukemia): < 10 nM
- TGI (MOLT-4 leukemia): 12.9 nM and 25.8 nM
- GI50 (CAKI-1 renal): 37.2 nM and 277 nM
- TGI (CAKI-1 renal): 694 nM and 2000 nM
- TGI (HCT-15 colon): 536 nM and 432 nM
- GI50 (RXF 393 renal): 185 nM and 399 nM
- TGI (RXF 393 renal): 768 nM and 927 nM
- TGI (SF-295 CNS): 498 nM and 752 nM
- GI50 (OVCAR-4 ovarian): 209 nM and 1120 nM
- GI50 (UACC-62 melanoma): 217 nM and 35.9 nM
- TGI (UACC-62 melanoma): 1380 nM and 216 nM
- TGI (HT29 colon): 1930 nM and 410 nM
- TGI (SF-539 CNS): 263 nM and 194 nM
- TGI (SNB-19 CNS): 22400 nM and 2940 nM
- TGI (IGROV1 ovarian): 3590 nM and 567 nM
- GI50 (UACC-257 melanoma): 1420 nM and 256 nM
- TGI (UACC-257 melanoma): 11900 nM and 2120 nM
- GI50 (MALME-3M melanoma): 238 nM and 113 nM
- TGI (MALME-3M melanoma): 1600 nM and 1110 nM
